From ChEMBL document CHEMBL1201862, “PubChem BioAssay data set” (2004)
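Compound exposure: 48 hours, 5 concentrations, 96-well plates. At the GI50, growth is halved.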 Active and inactive are the calls of the source. No stated cut-off is given here; in the data, active = GI50 up to about 1.1 µM and inactive = higher.

Tests used:
Assay in all cases: NCI tumour cell line growth inhibition, 48 h
CCRF-CEM = system: CCRF-CEM
KM12 = system: KM12
OVCAR-3 = system: OVCAR-3
MDA-MB-231 = system: MDA-MB-231
NCI-H522 = system: NCI-H522
SR = system: SR
SW-620 = system: SW-620
MCF7 = system: MCF7
HOP-62 = system: HOP-62
A498 = system: A498
ACHN = system: ACHN
IGROV-1 = system: IGROV-1
NCI-H460 = system: NCI-H460
T47D = system: T47D
U-251 = system: U-251
RPMI-8226 = system: RPMI-8226
HCT-116 = system: HCT-116
CAKI-1 = system: CAKI-1
SNB-19 = system: SNB-19
HCC 2998 = system: HCC 2998

Measured: GI50

Cc1nc(N)nc2ccccc12
inactive: CCRF-CEM > 100 µM | KM12 > 100 µM | OVCAR-3 > 100 µM | MDA-MB-231 > 100 µM | NCI-H522 > 100 µM | SR > 100 µM | SW-620 > 100 µM | MCF7 > 100 µM | HOP-62 > 100 µM | A498 > 100 µM | ACHN > 100 µM | IGROV-1 > 100 µM | NCI-H460 > 100 µM | T47D > 100 µM | U-251 > 100 µM | RPMI-8226 > 100 µM | HCT-116 > 100 µM | CAKI-1 > 100 µM | SNB-19 > 100 µM

O=[N+]([O-])c1ccc(Cl)cc1N/N=C/c1cccc2cccnc12
inactive: CCRF-CEM 34.8 µM | KM12 > 100 µM | OVCAR-3 > 100 µM | MDA-MB-231 > 100 µM | NCI-H522 > 100 µM | SR 15.3 µM | SW-620 96.6 µM | MCF7 > 100 µM | HOP-62 > 100 µM | ACHN > 100 µM | IGROV-1 > 100 µM | NCI-H460 > 100 µM | T47D > 100 µM | U-251 79.1 µM | RPMI-8226 20.3 µM | HCC 2998 > 100 µM | HCT-116 54 µM | CAKI-1 > 100 µM | SNB-19 31.3 µM

N=C(N)SCc1nc(-c2ccc(Cl)cc2)no1
inactive: CCRF-CEM 3.84 µM | KM12 20.8 µM | OVCAR-3 11.9 µM | MDA-MB-231 12.6 µM | NCI-H522 10.6 µM | SR 4.48 µM | SW-620 12.2 µM | MCF7 12.9 µM | HOP-62 27.3 µM | A498 16.8 µM | ACHN 13.3 µM | IGROV-1 32.7 µM | NCI-H460 23.8 µM | T47D 11.3 µM | U-251 21.7 µM | RPMI-8226 5.05 µM | HCT-116 14.6 µM | CAKI-1 14 µM | SNB-19 38.2 µM

CC1(c2ccc(Cl)cc2)C=C(c2ccc(Cl)cc2)C(C#N)=C(C(C#N)C#N)N1.CNC (stereo not drawn)
inactive: CCRF-CEM 5.02 µM | KM12 17.3 µM | OVCAR-3 8.75 µM | MDA-MB-231 24.9 µM | SR 15.7 µM | SW-620 12.7 µM | MCF7 16.6 µM | HOP-62 16.5 µM | A498 17.9 µM | ACHN 16.6 µM | IGROV-1 12.9 µM | NCI-H460 20.4 µM | T47D 14.2 µM | U-251 16.1 µM | RPMI-8226 34.4 µM | HCC 2998 16.3 µM | HCT-116 14 µM | CAKI-1 16.9 µM | SNB-19 18.2 µM

[O-][S+](CCCl)c1c2ccccc2nc2ccccc12 (stereo not drawn)
inactive: CCRF-CEM 21.3 µM | KM12 65.3 µM | OVCAR-3 > 100 µM | MDA-MB-231 70.6 µM | NCI-H522 8.45 µM | SR > 100 µM | SW-620 11.3 µM | MCF7 28.2 µM | HOP-62 > 100 µM | A498 > 100 µM | ACHN > 100 µM | IGROV-1 38.6 µM | NCI-H460 > 100 µM | T47D > 100 µM | U-251 > 100 µM | HCC 2998 > 100 µM | HCT-116 42.1 µM | CAKI-1 14.8 µM | SNB-19 > 100 µM

N#CCCN(CCC#N)c1ccc(/C=C2\N=C(c3ccccc3)N(c3ccc(F)cc3)C2=O)cc1
inactive: KM12 > 100 µM | OVCAR-3 > 100 µM | MDA-MB-231 > 100 µM | SR > 100 µM | SW-620 > 100 µM | MCF7 > 100 µM | HOP-62 > 100 µM | A498 > 100 µM | ACHN > 100 µM | IGROV-1 > 100 µM | NCI-H460 > 100 µM | T47D > 100 µM | U-251 > 100 µM | RPMI-8226 > 100 µM | HCT-116 > 100 µM | CAKI-1 > 100 µM | SNB-19 > 100 µM

COc1cc(CC2CC(c3ccc4c(c3)OCO4)OC2=O)cc(OC)c1OC (stereo not drawn)
inactive: CCRF-CEM > 100 µM | KM12 > 100 µM | OVCAR-3 49.5 µM | MDA-MB-231 52.1 µM | SR > 100 µM | SW-620 > 100 µM | MCF7 > 100 µM | HOP-62 > 100 µM | A498 > 100 µM | ACHN > 100 µM | NCI-H460 > 100 µM | T47D 39 µM | U-251 > 100 µM | RPMI-8226 25.1 µM | HCC 2998 > 100 µM | HCT-116 > 100 µM | CAKI-1 59.2 µM | SNB-19 > 100 µM

COc1ccc2c(c1)C(N)=C(c1ccccc1OC)C2=O
inactive: CCRF-CEM > 100 µM | KM12 76.6 µM | OVCAR-3 > 100 µM | MDA-MB-231 > 100 µM | SR 29.9 µM | SW-620 > 100 µM | MCF7 > 100 µM | HOP-62 > 100 µM | A498 > 100 µM | ACHN > 100 µM | IGROV-1 > 100 µM | NCI-H460 > 100 µM | T47D > 100 µM | U-251 > 100 µM | RPMI-8226 > 100 µM | HCC 2998 > 100 µM | HCT-116 > 100 µM | CAKI-1 > 100 µM | SNB-19 > 100 µM

O=[N+]([O-])c1cccc(/N=N/c2c(O)c(S(=O)(=O)O)cc3cc(S(=O)(=O)O)ccc23)c1
inactive: CCRF-CEM > 100 µM | KM12 > 100 µM | OVCAR-3 > 100 µM | MDA-MB-231 > 100 µM | NCI-H522 > 100 µM | SR > 100 µM | SW-620 > 100 µM | MCF7 67.8 µM | HOP-62 > 100 µM | A498 > 100 µM | ACHN > 100 µM | IGROV-1 > 100 µM | NCI-H460 > 100 µM | T47D > 100 µM | U-251 > 100 µM | HCC 2998 > 100 µM | HCT-116 > 100 µM | CAKI-1 > 100 µM | SNB-19 > 100 µM

N#C[C@H]1Nc2ccccc2[C@@H](O)C1O (stereo partly drawn)
inactive: CCRF-CEM > 100 µM | KM12 > 100 µM | OVCAR-3 > 100 µM | MDA-MB-231 > 100 µM | SR > 100 µM | SW-620 > 100 µM | MCF7 > 100 µM | HOP-62 > 100 µM | ACHN > 100 µM | IGROV-1 > 100 µM | NCI-H460 > 100 µM | T47D > 100 µM | U-251 > 100 µM | RPMI-8226 > 100 µM | HCC 2998 > 100 µM | HCT-116 > 100 µM | CAKI-1 > 100 µM

CC(C(=O)O)c1ccc(-c2ccccc2)c(F)c1 (stereo not drawn) [FLURBIPROFEN]
inactive: CCRF-CEM > 100 µM | KM12 > 100 µM | MDA-MB-231 > 100 µM | NCI-H522 > 100 µM | SR > 100 µM | SW-620 > 100 µM | MCF7 > 100 µM | HOP-62 > 10 µM | ACHN > 100 µM | IGROV-1 > 100 µM | NCI-H460 > 100 µM | T47D > 100 µM | U-251 > 100 µM | RPMI-8226 > 100 µM | HCC 2998 > 100 µM | HCT-116 > 100 µM | CAKI-1 > 100 µM | SNB-19 > 100 µM
